Reference: paper PMC4623604, “Discovery of Small Molecules that Inhibit the Disordered Protein, p27^Kip1” (Scientific Reports, 2015)

Target: T1, p27-D2/Cdk2/cyclin A (Homo sapiens, UniProt P46527)
T1 construct: p27-D2 (residues 58-105 of human p27); 6xHis (N, cleaved yes); made in house; host or cells: E. coli for p27-D2
Assay: 2D 1H-15N TROSY-HSQC NMR displacement of p27-D2 from Cdk2/cyclin A
Assay type: binding
Settings: 3 mM SJ403, 100 μM complex, 308 K
Procedure: We next used NMR spectroscopy to monitor the displacement of ^2H/^13C/^15N-labeled p27-D2 from Cdk2/cyclin A by SJ403; the complex of p27-D2 with Cdk2/cyclin A (100 μM) was prepared with a slight excess of ^2H/^13C/^15N-p27-D2 (mole ratio, 1.1:1.0 p27-D2:Cdk2/cyclin A). […] In this method, the relative population of the free state resonances (p^f; for the resonance of each p27-D2 residue) was determined as a fraction of the total intensity of both free and bound resonances for a given residue. These values were compared by forming the ratio of the two relative free state populations (p^fw/SJ403/p^fw/o SJ403); values greater than 1 indicated compound-dependent displacement. The relative populations for the bound state (p^b) were also determined for samples without (p^bw/o SJ403) and with SJ403 (p^bw/SJ403). […]
Figure 5 2D ^1H-^15N TROSY-HSQC NMR analysis of displacement of ^15N-p27-D2 from Cdk2/cyclin A by SJ403. 2D ^1H-^15N TROSY-HSQC NMR spectra of p27-D2/Cdk2/cyclin A in the absence (control) and presence of SJ403 (3 mM), respectively, were recorded. […]

T1 sequence (P46527 58-105): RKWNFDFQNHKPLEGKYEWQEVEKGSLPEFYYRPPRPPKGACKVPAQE

- displacement of p27-D2 from Cdk2/cyclin A by NMR: partial displacement
SMILES: CCn1c(C)c(C)n2c3c(=O)n(C)c(=O)n(C)c3nc12 [SJ403]
